In patent US20200009088A1, “COMPOSITIONS AND METHODS FOR TREATING ANDROGEN-INDEPENDENT CANCER” (The Regents of the University of California, priority 2017, published 2020):
“Also recorded” adds a separate entry of the source.

What was measured:
[1] = target: T1, AR-V9 (Homo sapiens, UniProt P10275, DEL470-473/INS56QQQQQ/L57Q); assay: PSA-luc assay in C4-2B cells, AR-V9; type: cell-based; conditions: FBS, 1 μM overnight, FIG. 14E
T1 construct: expressed in transfected cells; host or cells: C4-2B
Description: (§1) C4-2B cells were cotransfected with pcDNA, with or without AR-V1, AR-V3, AR-V7, AR-V9 or AR-V12, and with PSA-E/P-luciferase plasmids in FBS condition.

[2] = system: LuCaP 35CR PDX xenograft; assay: LuCaP 35CR PDX tumor model, oral administration; type: in vivo, mice
Description: For the data shown in FIG. 19A, a LuCaP 35CR PDX model was established in male castrated SCID mice. […] Tumor and body weights are shown in FIGS. 19B and 19C, respectively.

[3] = system: AR-V3; assay: PSA-luc assay in C4-2B cells, AR-V3; type: cell-based; conditions: FBS, 1 μM overnight, FIG. 14C
Description: as §1

[4] = target: T2, wild-type AR (Homo sapiens, UniProt P10275); assay: AR transactivation luciferase assay in HEK 293 cells, wild-type AR; type: cell-based; conditions: luciferase reporter, FIG. 5A
T2 construct: expressed in transfected cells; host or cells: HEK 293
Description: (§2) HEK 293 cells were transiently transfected with expression vectors encoding the corresponding mutant AR and an androgen-responsive luciferase reporter gene construct. […] Luciferase activity was then determined.

[5] = target: T3, AR-FL (Homo sapiens, UniProt P10275, T878A); assay: PSA-luc assay in C4-2B cells (pcDNA), AR-FL; type: cell-based; conditions: FBS, 1 μM overnight, FIG. 14A
T3 construct: endogenous in cells; host or cells: C4-2B cells transfected with pcDNA and the PSA-E/P-luciferase reporter
Description: as §1

[6] = system: AR; assay: Western blot of AR in CWR22Rv1 xenograft tumor lysates; type: in vivo; conditions: CWR22Rv1 xenograft lysates vs controls, FIG. 13D
Description: (§3) Tumor volume, tumor weight, and body weight were measured. Protein lysates were isolated from the tumors and analyzed for AR and AR-V7 expression by Western blot. […] “AR-Variants” represents a combination of all forms of AR. * denotes p<0.05.
(§4) Protein lysates were isolated and analyzed for AR and AR-V7 expression by Western blot.

[7] = target: T4, V716M AR mutant (Homo sapiens, UniProt P10275, V716M); assay: AR transactivation luciferase assay in HEK 293 cells, V716M; type: cell-based; conditions: luciferase reporter, FIG. 5E
T4 construct: expressed in transfected cells; host or cells: HEK 293
Description: as §2

[8] = target: T5, AR-V12 (Homo sapiens, UniProt P10275); assay: PSA-luc assay in C4-2B cells, AR-V12; type: cell-based; conditions: FBS, 1 μM overnight, FIG. 14F
T5 construct: expressed in transfected cells; host or cells: C4-2B
Description: as §1

[9] = target: T6, AR-V7 (Homo sapiens, UniProt P10275); assay: Western blot of AR-V7 in CWR22Rv1 xenograft tumor lysates; type: in vivo; set-up: endogenous in cells; host or cells: CWR22Rv1 prostate cancer cells (also grown as xenograft tumours); conditions: CWR22Rv1 xenograft lysates vs controls, FIG. 13D
T6 sequence (P10275 1-644 isoform P10275-3): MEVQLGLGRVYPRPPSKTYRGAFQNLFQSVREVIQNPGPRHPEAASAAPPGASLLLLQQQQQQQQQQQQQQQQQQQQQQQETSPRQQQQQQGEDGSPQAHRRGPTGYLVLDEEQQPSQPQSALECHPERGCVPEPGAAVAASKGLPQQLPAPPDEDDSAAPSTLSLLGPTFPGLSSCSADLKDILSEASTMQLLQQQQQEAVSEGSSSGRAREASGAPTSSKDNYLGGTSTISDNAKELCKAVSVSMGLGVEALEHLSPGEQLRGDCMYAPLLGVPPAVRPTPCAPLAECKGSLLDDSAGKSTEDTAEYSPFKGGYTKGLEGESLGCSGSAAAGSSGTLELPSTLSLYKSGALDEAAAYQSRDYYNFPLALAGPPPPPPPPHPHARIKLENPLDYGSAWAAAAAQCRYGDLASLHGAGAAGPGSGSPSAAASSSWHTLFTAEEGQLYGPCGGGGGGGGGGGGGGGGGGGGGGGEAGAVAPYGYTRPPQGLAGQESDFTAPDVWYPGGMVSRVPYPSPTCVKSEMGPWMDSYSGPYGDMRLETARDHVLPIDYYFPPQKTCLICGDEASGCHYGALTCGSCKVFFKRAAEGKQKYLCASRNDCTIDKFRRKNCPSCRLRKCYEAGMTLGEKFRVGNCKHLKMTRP
Description: as §3, §4

[10] = system: C4-2-V7 cells; assay: Cell growth assay (cell numbers), C4-2-V7; type: cell-based; conditions: C4-2-V7, 0.5 μM + enzalutamide, 48 hours, FIG. 7D
[11] = system: MCF-7 cells; assay: Breast cancer cell growth, MCF-7; type: cell-based; conditions: three days, FIG. 20B
[12] = system: CWR22Rv1 cells; assay: Cell growth assay (cell numbers), CWR22Rv1; type: cell-based; conditions: for cell proliferation, combination with enzalutamide (MDV): CWR22Rv1, 0.5 μM + enzalutamide, 48 hours, FIG. 7A; for cell growth: CWR22Rv1, 48 hours, increasing doses of niclosamide/analogs, FIG. 6
[13] = system: AR variants; assay: AR variant protein degradation (cycloheximide, MG132, ubiquitin IP) in C4-2B MDVR cells; type: cell-based; conditions: FIG. 16
Description: (§5) “AR-Variants” represents a combination of all forms of AR.
To determine if the small molecule modulators affect AR-V7 protein expression via protein degradation, CWR22Rv1 and C4-2B MDVR cells were treated with cycloheximide (CHX) and the half-life of AR-V7 protein was measured.
After 0, 2, 4, and 8 hours, whole cell lysate was collected and subjected to Western blot. Half-life of AR-V7 was then calculated.
Whole cell lysate was subsequently collected and subjected to Western blot.
Whole cell lysate was immunoprecipitated with an AR antibody and blot with ubiquitin and AR antibodies.

[14] = target: T6, AR-V7; assay: PSA-luc assay in C4-2B cells, AR-V7; type: cell-based; conditions: FBS, 1 μM overnight, FIG. 14D
Description: as §1

[15] = target: T6, AR-V7; assay: Western blot of AR-V7 expression in CWR22Rv1 cell lysates; type: cell-based; set-up: endogenous in cells; host or cells: CWR22Rv1 prostate cancer cells (also grown as xenograft tumours); conditions: CWR22Rv1 cells, FIG. 2A
Description: as §5
The effects of the synthetic small molecule modulators on AR and AR variant expression were determined. CWR22Ry1 prostate cancer cells were treated with different compounds. Protein lysates were analyzed for AR and AR variant expression.

[16] = system: CWR22Rv1 tumor xenografts; assay: CWR22Rv1 tumor xenograft growth in vivo
Description: as §3, §4

Structure (SMILES) | AR-V9-mediated PSA-luc activity [1] | AR-V3-mediated PSA-luc activity [3] | wild-type AR transactivation [4] | AR-FL-mediated transcriptional activity (PSA-luc) [5] | V716M mutant AR transactivation [7] | AR-V12-mediated PSA-luc activity [8] | cell proliferation, combination with enzalutamide (MDV) [10] | breast cancer cell growth [11] | cell proliferation, combination with enzalutamide (MDV) [12] | cell growth [12] | AR variant degradation via the proteasome-ubiquitination system [13] | AR-V7-mediated PSA-luc activity [14] | AR-V7 (AR variant) expression [15] | also measured
O=C(Nc1ccc(C(F)(F)F)cc1Cl)c1cc(Cl)ccc1O [Compound 7] | inhibited | inhibited | blocked | inhibited | significantly blocked | inhibited | further inhibited | inhibited | further inhibited | able to inhibit cell growth in a dose-dependent manner | degraded | inhibited | inhibited | serum PSA levels compared with niclosamide ([2]; both p.o. 150 mg/kg): to a greater extent than niclosamide; anti-tumor activity (tumor volume) compared with niclosamide ([2]; both p.o. 150 mg/kg, 150 mg/kg): to a greater extent than niclosamide; also recorded: better anti-tumor activity than niclosamide; tumor growth ([2]; castrated SCID mice, p.o. 150 mg/kg, 4 weeks, FIG. 19, 150 mg/kg): significantly inhibited; also recorded: suppressed; body weight ([2]; castrated SCID mice, p.o. 150 mg/kg, 4 weeks, FIG. 19C): without inhibition of body weight; PSA protein expression in mouse sera ([2]; p.o. 150 mg/kg, 4 weeks, FIG. 19D): inhibited; AR protein expression in tumors [6]: significantly inhibited; AR-V7 protein expression in tumors [9]: significantly inhibited; body weight ([16]; FIG. 13B): without inhibition of body weight; tumor growth ([16]; FIGS. 13A-13C): significantly inhibited
C=CC(=O)Oc1ccc(Cl)cc1C(=O)Nc1ccc([N+](=O)[O-])cc1Cl [Compound 31] | inhibited | inhibited | blocked | inhibited | significantly blocked | inhibited | further inhibited | inhibited | further inhibited | able to inhibit cell growth in a dose-dependent manner | degraded | inhibited | inhibited | 
